Source: patent US5081242A, “6-benzoxazinyl- and 6-benzothiazinyl 2,3,4,5-tetrahydropyridazin-3-ones” (Ortho Pharmaceutical Corporation, priority 1991, dated 1992)

Key:
[1] = molecular target: cyclic nucleotide phosphodiesterase; assay: Phosphodiesterase inhibitory activity (cyclic AMP hydrolysis); assay type: biochemical; settings: read-out: IC50 (50% inhibition of cyclic nucleotide phosphodiesterase activity); cyclic AMP 0.10-1.0 μM, pH 7.4
[2] = tested on: adult mongrel dogs; assay: Cardiotonic activity in anesthetized dogs (myocardial contractile force, i.v.); assay type: in vivo; settings: Canis lupus familiaris, iv, vs pretreatment control, read-out: CF: Percent increase in cardiac force; for change in vivo at 1.87 mg/kg: i.v. dose 1.87 mpk; for change in vivo at 0.47 mg/kg: i.v. dose 0.47 mpk; for change in vivo at 0.075 mg/kg: i.v. dose 0.075 mpk
Experimental: The cardiotonic activity of the compounds was determined in accordance with the method of Alousi, A. A., et al., J. Cir. Res. 45, 666 (1979). Basically, adult mongrel dogs were anesthetized with sodium pentobarbital and artificially respired. Arterial pressure was recorded via a femoral artery and the pressure pulse used to trigger a cardiotachometer for heart rate. Left ventricular pressure was measured with a Millar catheter and dP/dt was derived. Cardiac output was determined by measuring ascending aortic blood flow with an electromagnetic flow probe and myocardial contractile force was measured with a Walton Brodie strain gauge sutured to the right ventricle. Lead II EKG was also recorded. A standard does of dopamine was administered to assess myocardial responsiveness. Test compounds were administered by i.v. infusion or bolus administration and the effects on cardiovascular parameters were determined. Dose-related effects of the test compound on BP, HR, dP/dt max., C.F. and C.O. were compared to pretreatment control values and expressed as a percentage change.

| Compound | IC50 [1] | change in vivo at 1.87 mg/kg [2] | change in vivo at 0.47 mg/kg [2] | change in vivo at 0.075 mg/kg [2] |
| --- | --- | --- | --- | --- |
| CC1CNc2cc(C3=NNC(=O)CC3C)ccc2O1 (centres unmarked) [Example 19, 6-(3,4-Dihydro-2-methyl-1,4(2H)-benzoxazin-6-yl)-2,3,4,5-tetrahydro-5-methylpyridazin-3-one] | 40 µM | – | 98% | – |
| COc1ccc(C(=O)N2CCOc3ccc(C4=NNC(=O)CC4)cc32)cc1OC [Example 14, 6-(3,4-Dihydro-4-(3,4-dimethoxyphenylcarbonyl)-1,4(2H)-benzoxazin-6-yl)-2,3,4,5-tetrahydropyridazin-3-one] | 80 µM | 30% | – | – |
| CN1N=C(c2ccc3c(c2)N(S(C)(=O)=O)CCO3)CCC1=O [Example 9, 6-(3,4-Dihydro-4-methanesulfonyl-1,4(2H)-benzoxazin-6-yl)-2,3,4,5-tetrahydro-2-methylpyridazin-3-one] | 100 µM | 62% | – | – |
| Cc1cc2c(cc1C1=NNC(=O)CC1)N(C)C(=O)CO2 [Example 29, 6-(3,4-Dihydro-4,7-dimethyl-3-oxo-1,4(2H)-benzoxazin-6-yl)-2,3,4,5-tetrahydropyridazin-3-one] | 56 µM | – | 12% | – |
| Cc1cc2c(c(C3=NNC(=O)CC3)c1)OCC(=O)N2 [Example 38, 6-(3,4-Dihydro-6-methyl-3-oxo-1,4(2H)-benzoxazin-8-yl)-2,3,4,5-tetrahydropyridazin-3-one] | 31 µM | – | 24% | – |
| CC(=O)N1CCOc2ccc(C3=NNC(=O)CC3)cc21 [Example 13, 6-(4-Acetyl-3,4-dihydro-1,4(2H)-benzoxazin-6-yl)-2,3,4,5-tetrahydropyridazin-3-one] | 100 µM | 71% | – | – |
| Cc1cc2c(cc1C1=NNC(=O)CC1C)N(C)C(=O)CO2 (racemic) [Example 31, 6-(3,4-Dihydro-4,7-dimethyl-3-oxo-1,4(2H)-benzoxazin-6-yl)-2,3,4,5-tetrahydro-5-methylpyridazin-3-one] | 38 µM | – | 33% | – |
| Cc1cc2c(cc1C1=NNC(=O)CC1)N(C)C(=O)C(C)O2 (racemic) [Example 33, 6-(3,4-Dihydro-2,4,7-trimethyl-3-oxo-1,4(2H)-benzoxazin-6-yl)-2,3,4,5-tetrahydropyridazin-3-one] | 30 µM | – | 8% | – |
| C=CCN1N=C(c2ccc3c(c2)N(S(C)(=O)=O)CCO3)CCC1=O [Example 11, 6-(3,4-Dihydro-4-methanesulfonyl-1,4(2H)-benzoxazin-6-yl)-2,3,4,5-tetrahydro-2-(2-propenyl)pyridazin-3-one] | – | 41% | – | – |
| Cc1cc(C2=NNC(=O)CC2)c2c(c1)N(C)C(=O)CO2 [Example 39, 6-(3,4-Dihydro-4,6-dimethyl-3-oxo-1,4(2H)-benzoxazin-8-yl)-2,3,4,5-tetrahydropyridazin-3-one] | 28 µM | – | 18% | – |
| Cc1cc2c(cc1C1=NNC(=O)CC1)OCC(=O)N2C [Example 43, 6-(3,4-Dihydro-4,6-dimethyl-3-oxo-1,4(2H)-benzoxazin-7-yl)-2,3,4,5-tetrahydropyridazin-3-one] | 35 µM | – | 104% | – |
| Cc1cc2c(c(C3=NNC(=O)CC3C)c1)OCCN2 (centres unmarked) [Example 42, 6-(3,4-Dihydro-6-methyl-1,4(2H)-benzoxazin-8-yl)-2,3,4,5-tetrahydro-5-methylpyridazin-3-one] | – | – | 15% | – |
| O=C1CCC(c2ccc3c(c2)NC(=O)CO3)=NN1 [Example 20, 6-(3,4-Dihydro-3-oxo-1,4(2H)-benzoxazin-6-yl)-2,3,4,5-tetrahydropyridazin-3-one] | 630 µM | 71% | – | – |
| CCCCCN1N=C(c2ccc3c(c2)N(S(C)(=O)=O)CCO3)CCC1=O [Example 10, 6-(3,4-Dihydro-4-methanesulfonyl-1,4(2H)-benzoxazin-6-yl)-2,3,4,5-tetrahydro-2-pentylpyridazin-3-one] | – | 18% | – | – |
| O=C1CCC(c2ccc3c(c2)NCCO3)=NN1 [Example 12, 6-(3,4-Dihydro-1,4(2H)-benzoxazin-6-yl)-2,3,4,5-tetrahydropyridazin-3-one] | – | 92% | – | – |

Further lines, with some results ahead:

| IC50 [1] | Compound | change in vivo at 1.87 mg/kg [2] | change in vivo at 0.47 mg/kg [2] | change in vivo at 0.075 mg/kg [2] |
| --- | --- | --- | --- | --- |
| 4 µM | CC1CC(=O)NN=C1c1ccc2c(c1)N(S(C)(=O)=O)CCO2 (racemic) [Example 17, 6-(3,4-Dihydro-4-methanesulfonyl-1,4(2H)-benzoxazin-6-yl)-2,3,4,5-tetrahydro-5-methylpyridazin-3-one] | 62% | – | – |
| 9.5 µM | CS(=O)(=O)N1CCOc2ccc(C3=NNC(=O)CC3)cc21 [Example 8, 6-(3,4-Dihydro-4-methanesulfonyl-1,4(2H)-benzoxazin-6-yl)-2,3,4,5-tetrahydropyridazin-3-one] | 98% | – | – |
| 8 µM | CC1CC(=O)NN=C1c1ccc2c(c1)N(C)C(=O)CO2 (racemic) [Example 23, 6-(3,4-Dihydro-4-methyl-3-oxo-1,4(2H)-benzoxazin-6-yl)-2,3,4,5-tetrahydro-5-methylpyridazin-3-one] | – | 134% | – |
| 15 µM | Cc1cc2c(cc1C1=NNC(=O)CC1)NC(=O)CO2 [Example 28, 6-(3,4-Dihydro-7-methyl-3-oxo-1,4(2H)-benzoxazin-6-yl)-2,3,4,5-tetrahydropyridazin-3-one] | – | 46% | – |
| 14 µM | CC1Oc2ccc(C3=NNC(=O)CC3)cc2NC1=O (racemic) [Example 24, 6-(3,4-Dihydro-2-methyl-3-oxo-1,4(2H)-benzoxazin-6-yl)-2,3,4,5-tetrahydropyridazin-3-one] | – | 54% | – |
| 18 µM | CN1C(=O)COc2ccc(C3=NNC(=O)CC3)cc21 [Example 21, 6-(3,4-Dihydro-4-methyl-3-oxo-1,4(2H)-benzoxazin-6-yl)-2,3,4,5-tetrahydropyridazin-3-one] | – | 74% | – |
| 2 µM | CC1CC(=O)NN=C1c1ccc2c(c1)NC(=O)CO2 (racemic) [Example 22, 6-(3,4-Dihydro-3-oxo-1,4(2H)-benzoxazin-6-yl)-2,3,4,5-tetrahydro-5-methylpyridazin-3-one] | – | 136% | – |
| 6 µM | CC1CC(=O)NN=C1c1ccc2c(c1)N(C)C(=O)C(C)O2 (centres unmarked) [Example 27, 6-(3,4-Dihydro-2,4-dimethyl-3-oxo-1,4(2H)-benzoxazin-6-yl)-2,3,4,5-tetrahydro-5-methylpyridazin-3-one] | – | 117% | – |
| 26 µM | Cc1cc2c(c(C3=NNC(=O)CC3C)c1)OCC(=O)N2 (centres unmarked) [Example 40, 6-(3,4-Dihydro-6-methyl-3-oxo-1,4(2H)-benzoxazin-8-yl)-2,3,4,5-tetrahydro-5-methylpyridazin-3-one] | – | 22% | – |
| 0.3 µM | CC1CC(=O)NN=C1c1ccc2c(c1)OCC(=O)N2 (racemic) [Example 46, 6-(3,4-Dihydro-3-oxo-1,4(2H)-benzoxazin-7-yl)-2,3,4,5-tetrahydro-5-methylpyridazin-3-one] | – | – | 130% |
| 8 µM | CC1CC(=O)NN=C1c1ccc2c(c1)N(C1CCCC1)C(=O)C(C)O2 (centres unmarked) [Example 37, 6-(3,4-Dihydro-4-cyclopentyl-2-methyl-3-oxo-1,4(2H)-benzoxazin-6-yl)-2,3,4,5-tetrahydro-5-methylpyridazin-3-one] | – | 4% | – |
| 22 µM | CN1C(=O)CSc2ccc(C3=NNC(=O)CC3)cc21 [Example 54, 6-(3,4-Dihydro-4-methyl-3-oxo-1,4[2H]-benzothiazin-6-yl)-2,3,4,5-tetrahydropyridazin-3-one] | – | – | 11% |
| 13 µM | CC1Oc2ccc(C3=NNC(=O)CC3)cc2N(C)C1=O (racemic) [Example 25, 6-(3,4-Dihydro-2,4-dimethyl-3-oxo-1,4(2H)-benzoxazin-6-yl)-2,3,4,5-tetrahydropyridazin-3-one] | – | 31% | – |
| 20 µM | Cc1cc2c(cc1C1=NNC(=O)CC1C)NC(=O)CO2 (racemic) [Example 30, 6-(3,4-Dihydro-7-methyl-3-oxo-1,4(2H)-benzoxazin-6-yl)-2,3,4,5-tetrahydro-5-methylpyridazin-3-one] | – | 124% | – |
| 5 µM | CC1CC(=O)NN=C1c1ccc2c(c1)NC(=O)C(C)O2 (centres unmarked) [Example 26, 6-(3,4-Dihydro-2-methyl-3-oxo-1,4(2H)-benzoxazin-6-yl)-2,3,4,5-tetrahydro-5-methylpyridazin-3-one] | – | 156% | – |
| 8 µM | CC1CC(=O)NN=C1c1ccc2c(c1)NCCO2 (racemic) [Example 15, 6-(3,4-Dihydro-1,4(2H)-benzoxazin-6-yl)-2,3,4,5-tetrahydro-5-methylpyridazin-3-one] | 125% | – | – |
| 7 µM | Cc1cc(C2=NNC(=O)CC2C)c2c(c1)N(C)C(=O)CO2 (centres unmarked) [Example 41, 6-(3,4-Dihydro-4,6-dimethyl-3-oxo-1,4(2H)-benzoxazin-8-yl)-2,3,4,5-tetrahydro-5-methylpyridan-3-one] | – | 60% | – |
| 8 µM | CC1CNc2cc(C3=NNC(=O)CC3)ccc2O1 (racemic) [Example 18, 6-(3,4-Dihydro-2-methyl-1,4(2H)-benzoxazin-6-yl)-2,3,4,5-tetrahydropyridazin-3-one] | – | 50% | – |
